Results from paper PMC6760193, “Characterization of artificially re-pigmented ARPE-19 retinal pigment epithelial cell model” (Scientific Reports, 2019).

How the values were obtained:
ARPE-19mel cells = test: Melanosomal drug uptake assay in re-pigmented ARPE-19mel cells (medium concentration vs non-pigmented ARPE-19, LC-MS/MS); assay type: in vitro ADME, human; conditions: 4 µM drug, 20 hours; for Melanosomal drug uptake (%), average: serum-free medium; for Melanosomal drug uptake (fraction of administered compound in the melanosomes): ARPE-19mel cells, pigmentation stage not specified
Method: Uptake of six different drugs (Table 1) was studied in non-pigmented ARPE-19 cells and pigmented ARPE-19mel cells. The melanosome administration was conducted as described above using three melanosome doses (corresponding to 7 µg, 20 µg and 68 µg of melanin). These melanosome doses correspond to 10, 30 and 100% levels of pigmentation. The highest external melanosome dose (68 µg) results in similar cellular pigmentation with the native pRPE (i.e. normalized as 100%).
Drug uptake study was initiated 4–5 days after melanosome feeding. The experiments were conducted in 2–6 replicate wells, separately for each compound. The cells were exposed to 4 µM of each drug for 20 hours in serum-free culture medium. Then, samples from the medium samples were collected and diluted 2:5 into acetonitrile (ACN) with 0.2% formic acid. The samples were centrifuged at 15 000 g for 5 min, and the supernatant was collected and diluted 1:10 into mixture of ACN-water (60:40). Finally, internal standards were added at final concentration of 100 nM. Different internal standards were used for each compound (Table 1). The melanin amounts in the wells were measured after the uptake experiment (see above).
Drugs were quantitated with liquid chromatography mass spectrometry (LC-MS) analyses that were carried out with Acquity i-class UPLC (Waters, Massachusetts, USA) coupled with Xevo TQ-S triple quadrupole mass spectrometry (Waters). […] Chromatographic separation for all six compounds was carried out using Waters HSS-T3 column (2.1 × 100 mm, 1.8 µm) and gradient run. The mobile phases were prepared as binary phases. Phase A was purified water with 0.1% of formic acid and phase B contained 100% lc-ms grade acetonitrile (Chromasolv^TM). […] Total run time was 9 minutes including column flush and stabilization to the initial state. […] Flow through needle system was used.
Electrospray ionization on positive mode was used in the analyses. […] Nitrogen was used as a desolvation gas (Aga, Helsinki, Finland) and argon as a collision gas (Aga). Capillary and cone voltages, collision energy and dwell time were tuned individually for each compound (Table 2). […] Minimum of eight calibration curve levels were used for quantification while quality control (QC) samples used to monitor precision and bias of the assay. Data were processed with MassLynx V4.1 software (Waters).
The melanosomal drug uptake was calculated using the Eq. 1 below:1 Melanosomaldruguptake(%)=(1−CmediumARPE−19mel/CmediumARPE−19)×100%

[1] = set-up: method as in PMID 29859954, PMID 28479360; conditions: descriptors originally obtained with ACDLabs Software, cited from earlier work; for logD7.4 (predicted): pH 7.4
[2] = 10 % stage of pigmentation (7 µg melanin/well)
[3] = 30 % stage of pigmentation (20 µg melanin/well)
[4] = 100 % stage of pigmentation (68 µg melanin/well)

Melanosomal drug uptake (%), average (ARPE-19mel cells; [2]) [%]	Melanosomal drug uptake (%), average (ARPE-19mel cells; [3]) [%]	Melanosomal drug uptake (%), average (ARPE-19mel cells; [4]) [%]	Melanosomal drug uptake (fraction of administered compound in the melanosomes) (ARPE-19mel cells) [%]	Compound	pKa, most basic [1]	logD7.4 (predicted) [1]	pKa, most acidic [1]
11.5	23.5	30.2		CC[C@@H]1C(=O)OC[C@@H]1Cc1cncn1C [pilocarpine]	7.02	−0.4	
17.6	31.2	48.2		CC(C)(C)NC[C@H](O)COc1nsnc1N1CCOCC1 [timolol]	9.4	−0.6	
34.1	76.1	92.2	> 90	CC(C)NCC(O)COc1cccc2ccccc12 (centres unmarked) [propranolol]			
0.8	1.2	3.7	< 5	O=C(O)Cc1ccccc1Nc1c(Cl)cccc1Cl [diclofenac]		1.4	
80.3	93.3	96.7	> 90	CCN(CC)CCCC(C)Nc1ccnc2cc(Cl)ccc12 (centres unmarked) [chloroquine]			
5.1	3.9	3.5	< 5	CN(Cc1cnc2nc(N)nc(N)c2n1)c1ccc(C(=O)N[C@@H](CCC(=O)O)C(=O)O)cc1 [methotrexate]		−5.1	3.5
